Target: Histone deacetylase 1 (Homo sapiens, UniProt Q13547)
Test: Fluorescent Activity Assay: In vitro HDAC assays were performed using a HDAC fluorescent activity assay kit (Biomol, UK) according to the manufacturer's instructions. Compounds were reduced prior to analysis; 1 mM compound was reduced with 30 mM DTT in DMSO overnight at room temperature, protected from light. Reactions were then set up in a 96-well plate. For each reaction 10 ul compound (5x required concentration in assay buffer) was mixed with […] diluted HeIa Nuclear Extract (30-fold in assay buffer). Serial dilutions were set up for each compound. Reactions containing HeIa extract only and assay buffer only were also set up. 25 ul diluted Fluor de Lys substrate (100-fold in assay buffer) was added to each reaction, which were then incubated at 37C for 1 hour. The reaction was stopped by addition of 50 ul Fluor de Lys Developer (20-fold dilution in assay buffer, plus TSA diluted 100-fold). The reactions were then incubated at room temperature for 10 minutes before fluorescence was measured.

Chain of Histone deacetylase 1 (Q13547 whole entry): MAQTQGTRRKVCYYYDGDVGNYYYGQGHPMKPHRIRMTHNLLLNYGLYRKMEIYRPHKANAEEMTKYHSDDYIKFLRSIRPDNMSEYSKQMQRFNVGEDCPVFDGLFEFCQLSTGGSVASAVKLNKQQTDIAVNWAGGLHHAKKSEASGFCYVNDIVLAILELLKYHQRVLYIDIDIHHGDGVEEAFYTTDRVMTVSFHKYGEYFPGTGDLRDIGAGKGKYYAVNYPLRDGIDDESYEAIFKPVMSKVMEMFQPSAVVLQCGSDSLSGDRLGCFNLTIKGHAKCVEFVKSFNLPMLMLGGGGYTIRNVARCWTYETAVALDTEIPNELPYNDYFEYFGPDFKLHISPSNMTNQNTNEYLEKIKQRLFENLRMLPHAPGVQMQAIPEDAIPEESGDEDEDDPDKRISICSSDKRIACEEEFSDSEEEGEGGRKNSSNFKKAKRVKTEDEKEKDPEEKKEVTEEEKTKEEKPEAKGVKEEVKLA

IC50: 21.6 nM
SMILES: CC(=O)SCC/C=C/[C@@H]1CC(=O)N[C@H](C(C)C)C(=O)N[C@H](C)C(=O)N[C@H](C(C)C)[C@@H](O)CC(=O)O1
